{"source": "patent EP4389132A1", "about": "(priority 2021, dated 2023)", "key": {"[1]": {"biological_target": "T1, binding of SARS-CoV-2 to ACE2 (UniProt P0DTC2+Q9BYF1)", "T1 construct": "purchased RayBiotech Life, Inc", "assay": "COVID-19 Spike-ACE2 Binding Assay Kit (RayBiotech): ACE2 protein binding to S-protein adsorption plate, absorbance at 450 nm", "design": "species or system human"}, "[2]": {"tested_on": "influenza A/Kitakyushu/159/93 (H3N2)", "assay": "Antiviral properties of treated natural rubber glove film, plaque method on MDCK cells", "type": "cell-based, influenza virus", "settings": "glove immersed in 1% (V/V) aqueous solution for 10 minutes, dried; virus contact 1 hour at room temperature; control 6.78"}, "coronavirus (SARS-CoV-2)": {"tested_on": "coronavirus (SARS-CoV-2)", "assay": "Antiviral test of processed non-woven fabric according to ISO 18184, plaque method", "type": "cell-based", "settings": "polyethylene terephthalate non-woven fabric immersed in 2% (V/V) aqueous solution, pickup rate 200%, dried at 110°C; control 6.63"}}, "data": [{"smiles": "O[C@H]1[C@H](O)[C@@H](O)[C@H](O)[C@@H](O)[C@H]1O", "note": "[Myo-inositol, myo-inositol]", "values": [{"measurement": "Virus binding rate", "setting": "[1]; Concentration 2 % (V/V), relative binding rate, control = 1.00", "result": 1.00}, {"measurement": "binding inhibitory effect on the binding of SARS-CoV-2 to ACE2 (in words)", "setting": "[1]; summary of Table 1", "result": "no binding inhibitory effect was observed"}, {"measurement": "Viral infectivity titer", "setting": "[2]", "result": "4.1 PFU/0.1 mL, Log10"}, {"measurement": "Viral infectivity titer", "setting": "coronavirus (SARS-CoV-2)", "result": "2.7 PFU/0.1 mL, Log10"}]}]}
